Assay results: ChEMBL document CHEMBL1156372, “New halogenated marine prostanoids with cytotoxic activity from the Okinawan soft coral Clavularia viridis” (J Nat Prod, 2001)
Values after ≈ are worked out from the molar mass of the structure shown.

Assays:
Type in all cases: functional, cell-based
[1] = test system: MOLT-4; test: Cytotoxicity against human MOLT4 cells by MTT assay
[2] = test system: DLD-1; test: Cytotoxicity against human DLD1 cells by MTT assay
[3] = test system: IMR-90; test: Cytotoxicity against human IMR90 cells by MTT assay

SMILES: CCCCC/C=C\C[C@@]1(O)C=C(I)C(=O)[C@@H]1[C@H](/C=C\CCCC(=O)OC)OC(C)=O
- IC50 [1]: 0.52 µg/mL (≈ 0.977 µM)
- IC50 [2]: 0.6 µg/mL (≈ 1.13 µM)
- IC50 [3]: 4.5 µg/mL (≈ 8.45 µM)
